In data set [1] the target is T1, human 5-HT1A receptor (Homo sapiens (Human), UniProt P08908). As to the kind of experiment: Test 2: agonist activity for human 5-HT1A receptor ([35S]GTPγS binding). The class given is biochemical. Particulars: for EC50: [35S]GTPγS binding, concentration at which half the activity of Emax was obtained; for Emax at 10 µM: agonist activity in the presence of 10 μM of compound, relative to 100 μmol/L 5-HT. Summed up:
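[35S]GTPγS binding read-out: after 60 min at room temperature with test compound in GDP buffer, human 5-HT1A receptor CHO membranes were vacuum-filtered and retained radioactivity scintillation-counted. Agonist activity calculated by formula.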
Background: GTPγS resists hydrolysis and so accumulates on activated G proteins.

In data set [2] the target is T2, human 5-HT2A receptor (Homo sapiens (Human), UniProt P28223). As to the kind of experiment: Test 1: binding activity for human 5-HT2A receptor ([3H]Ketanserin, CHO cell membrane fraction). On the procedure:
Test 1: Evaluation of Binding Activity for Human 5-HT1A Receptor, Human 5-HT2A Receptor, and Human D2 Receptor
Binding affinity of the present compound for human 5-HT1A receptor, human 5-HT2A receptor, and human D2 receptor was measured by the following procedures.
Each mixture was incubated at room temperature for 60 minutes. Then, the mixture was added quickly on a glassfiber filter plate (Multiscreen FB, Millipore, Inc.) coated with 0.3% aqueous polyethylenimine, and vacuum-filtered. Radioactivity remaining on the filter was measured with a liquid scintillation counter (PerkinElmer, Inc.). Binding inhibition rate was calculated from the following formula.
Ki of each compound was calculated from the following formula. Binding inhibition constant (Ki)=IC50/(1+S/Kd) wherein S is concentration of ligand; Kd is a binding dissociation constant of ligand to membrane, which is calculated from a saturated binding experiment conducted with the same cell membrane. A small Ki value means strong binding ability to a receptor.

Data set [3] deals with T1, human 5-HT1A receptor. As to the kind of experiment: Test 1: binding activity for human 5-HT1A receptor ([3H]8-OH-DPAT, CHO cell membrane fraction). Summed up: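 Membranes incubated with [3H]8-OH-DPAT and compound for 60 min at room temperature, then filtered on polyethylenimine-coated glass-fibre plates and counted by liquid scintillation. IC50 from Hill analysis; Ki = IC50/(1+S/Kd), Kd from saturation binding on the same membranes.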

Data set [4] deals with T2, human 5-HT2A receptor. As to the kind of experiment: Test 3: antagonist activity for human 5-HT2A receptor (aequorin luminescence, CHO-K1 cells). The class given is cell-based. The settings on record: for IC50: CHO-K1 cells, 1 nmol/L 5-HT. How it is done:
Test 3: Evaluation of Antagonist Activity for Human 5-HT2A Receptor
Aequorin, Gα16 protein, and each receptor were transiently expressed in CHO-K1 cells (Chinese hamster ovary). […] Each compound dissolved in DMSO was added thereto, and changes in luminescence were measured by FDSS/μCELL functional drug screening system (Hamamatsu Photonics K.K.). Antagonist activity was calculated from the following formula. Antagonist activity (%)=100×{(Luminescence of well in the presence of 1 nmol/L 5-HT−Luminescence of well containing solvent)−(Luminescence of well in the presence of test compound and 1 nmol/L 5-HT−Luminescence of well containing solvent)}/(Luminescence of well in the presence of 1 nmol/L 5-HT−Luminescence of well containing solvent)

The target of the next data set is human D2 receptor (Homo sapiens (Human), UniProt P14416). As to the kind of experiment: Test 1: binding activity for human D2 receptor ([3H]Spiperone, CHO cell membrane fraction). The settings on record: for Ki: human D2 receptor, [3H]Spiperone; for D2 Ki/5-HT1A Ki / D2 Ki/5-HT2A Ki: selectivity ratio. Summed up:
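Compound displacement of [3H]ketanserin at 5-HT2A or [3H]spiperone at D2 was measured in CHO membrane fractions after 60 min at room temperature, with filtration and scintillation counting. IC50 was converted to Ki by Cheng–Prusoff using ligand concentration and Kd from saturation binding.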

Data set [5] is described as follows: Test 4: metabolic stability test in human hepatic microsome. The settings on record: 0.1 mg/mL microsome, 0.1 μmol/L compound, 37° C., 30 minutes. The class given is in vitro ADME. A digest of the protocol: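 LC-MS quantified remaining parent after 30 min, 37° C, in pH 7.4 25 mmol/L phosphate containing 0.1 mg/mL human hepatic microsomes, 3.2 mmol/L NADPH and 0.1 μmol/L test compound. Value given as −LN(residual ratio)/30/0.1, mL/min/mg protein.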

The next data set deals with hERG channel (Homo sapiens (Human), UniProt Q12809). As to the kind of experiment: Test 6-1: inhibitory activity for hERG channel (auto patch clamp, Qpatch). It counts as cell-based. The settings on record: whole cell auto patch clamp, hERG-CHO cells; read-out: hERG inhibition IC50. A digest of the protocol:
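Whole-cell patch clamp on an automated system using CHO cells stably expressing human hERG (IKr); 15 s pulse interval. Four increasing compound concentrations applied cumulatively; mean peak tail current from last 3 stimulations per concentration used. IC50 from inhibition versus pre-compound current, fitted by Hill equation.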
(hERG is a cardiac potassium channel; its block is linked to QT prolongation.)

The values that follow come from patent US10745401B2, “Condensed lactam derivative” (Sumitomo Dainippon Pharma Co., Ltd., priority 2018, dated 2020).

The EC50 is the concentration at which the effect is half-maximal. Higher therefore signals a less potent agent. One may read the Emax as the greatest response seen or fitted, relative to the assay's reference. For orientation: Ki means a measure of affinity in units of concentration, obtained from inhibition or displacement. Low readings indicate a stronger hold on the target, high ones a looser hold on the target. What is called IC50 is the concentration that gives 50% inhibition.

T1 sequence (P08908 whole entry): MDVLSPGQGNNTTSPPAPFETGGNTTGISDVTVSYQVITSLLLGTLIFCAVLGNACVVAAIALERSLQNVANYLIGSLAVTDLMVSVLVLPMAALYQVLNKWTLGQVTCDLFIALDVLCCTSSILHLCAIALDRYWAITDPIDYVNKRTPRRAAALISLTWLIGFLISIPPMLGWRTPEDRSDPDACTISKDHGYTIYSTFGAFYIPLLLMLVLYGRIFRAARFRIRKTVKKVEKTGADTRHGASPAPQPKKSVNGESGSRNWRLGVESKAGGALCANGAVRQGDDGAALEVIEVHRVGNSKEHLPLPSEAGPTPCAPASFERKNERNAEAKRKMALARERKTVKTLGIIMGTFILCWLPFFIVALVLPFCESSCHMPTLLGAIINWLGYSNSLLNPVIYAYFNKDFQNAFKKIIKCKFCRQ
T2 sequence (P28223 whole entry): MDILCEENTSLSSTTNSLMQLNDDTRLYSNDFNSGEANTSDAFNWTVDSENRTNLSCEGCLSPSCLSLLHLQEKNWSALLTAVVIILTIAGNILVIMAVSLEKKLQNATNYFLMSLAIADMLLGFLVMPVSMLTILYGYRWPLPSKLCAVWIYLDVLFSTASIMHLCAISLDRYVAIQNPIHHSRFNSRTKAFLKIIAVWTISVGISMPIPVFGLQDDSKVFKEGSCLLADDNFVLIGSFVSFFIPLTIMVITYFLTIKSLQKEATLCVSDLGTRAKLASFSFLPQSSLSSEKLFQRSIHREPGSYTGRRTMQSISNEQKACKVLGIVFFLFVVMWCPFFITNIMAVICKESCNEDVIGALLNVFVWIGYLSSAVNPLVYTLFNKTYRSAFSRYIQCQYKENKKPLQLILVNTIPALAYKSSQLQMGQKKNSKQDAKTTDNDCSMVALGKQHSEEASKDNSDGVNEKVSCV
hERG channel, sequence (Q12809 whole entry): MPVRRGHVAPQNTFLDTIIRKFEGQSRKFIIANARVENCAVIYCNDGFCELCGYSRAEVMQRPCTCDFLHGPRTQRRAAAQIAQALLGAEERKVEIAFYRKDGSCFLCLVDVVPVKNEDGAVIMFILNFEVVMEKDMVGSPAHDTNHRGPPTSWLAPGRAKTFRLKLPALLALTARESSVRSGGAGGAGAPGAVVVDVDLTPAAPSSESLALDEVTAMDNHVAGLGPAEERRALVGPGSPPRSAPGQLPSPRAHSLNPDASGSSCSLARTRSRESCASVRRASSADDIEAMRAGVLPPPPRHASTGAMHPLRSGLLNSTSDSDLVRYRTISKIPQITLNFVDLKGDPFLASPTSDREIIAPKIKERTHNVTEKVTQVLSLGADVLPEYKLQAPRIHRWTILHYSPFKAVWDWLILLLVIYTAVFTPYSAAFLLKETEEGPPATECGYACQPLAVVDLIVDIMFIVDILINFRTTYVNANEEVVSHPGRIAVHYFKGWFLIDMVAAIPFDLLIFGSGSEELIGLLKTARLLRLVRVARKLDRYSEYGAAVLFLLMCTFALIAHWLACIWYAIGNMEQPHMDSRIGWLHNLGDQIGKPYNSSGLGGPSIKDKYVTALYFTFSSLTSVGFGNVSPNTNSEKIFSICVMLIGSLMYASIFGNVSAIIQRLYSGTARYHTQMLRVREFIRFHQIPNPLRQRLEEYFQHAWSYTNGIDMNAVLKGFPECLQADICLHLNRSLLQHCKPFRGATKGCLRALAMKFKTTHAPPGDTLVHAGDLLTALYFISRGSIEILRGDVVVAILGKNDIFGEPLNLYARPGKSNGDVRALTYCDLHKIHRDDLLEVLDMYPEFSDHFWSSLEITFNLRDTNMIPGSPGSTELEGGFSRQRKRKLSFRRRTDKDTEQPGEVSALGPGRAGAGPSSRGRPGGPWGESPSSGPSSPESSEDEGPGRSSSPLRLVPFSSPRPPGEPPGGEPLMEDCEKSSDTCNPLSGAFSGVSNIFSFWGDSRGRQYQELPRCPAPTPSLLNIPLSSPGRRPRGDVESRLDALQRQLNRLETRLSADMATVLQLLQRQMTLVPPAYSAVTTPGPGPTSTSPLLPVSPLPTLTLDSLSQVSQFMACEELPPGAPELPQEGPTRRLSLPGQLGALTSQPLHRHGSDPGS
human D2 receptor, sequence (P14416 whole entry): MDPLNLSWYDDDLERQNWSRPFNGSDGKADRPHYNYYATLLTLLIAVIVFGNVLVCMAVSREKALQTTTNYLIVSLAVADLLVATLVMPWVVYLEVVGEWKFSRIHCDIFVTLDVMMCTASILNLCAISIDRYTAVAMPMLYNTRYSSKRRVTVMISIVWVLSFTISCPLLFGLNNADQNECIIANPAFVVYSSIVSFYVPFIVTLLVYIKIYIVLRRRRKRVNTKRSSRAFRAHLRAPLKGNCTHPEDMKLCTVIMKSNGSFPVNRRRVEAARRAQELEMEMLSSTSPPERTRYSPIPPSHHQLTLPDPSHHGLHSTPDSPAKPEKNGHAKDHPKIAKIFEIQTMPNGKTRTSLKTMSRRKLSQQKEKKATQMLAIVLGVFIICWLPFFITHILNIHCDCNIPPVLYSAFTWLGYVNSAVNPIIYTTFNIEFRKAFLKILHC

On to `O=C1c2ncccc2CCN1CCN1CCC(c2noc3c(F)cccc23)CC1` [Example 140], for which, at human 5-HT1A receptor [1], it took 2300 nM to reach a half-maximal effect (EC50) and the Emax at 10 µM was 27%. On human 5-HT2A receptor [2], this molecule showed a Ki of 118 nM. The molecule also yielded a Ki at human 5-HT1A receptor [3] of 168 nM. Besides, the IC50 against human 5-HT2A receptor [4] (aequorin luminescence) was 373 nM. Further, on human D2 receptor, the Ki was above 10000 nM, the “D2 Ki/5-HT1A Ki” value is listed as above 59.5 and the “D2 Ki/5-HT2A Ki” value is reported as above 84.7.
On human 5-HT1A receptor [1], `O=C1c2ncccc2CCN1CCN1CCN(c2noc3ccc(F)cc23)CC1` [Example 147] displayed an EC50 of 436 nM. The Ki on human 5-HT2A receptor [2] was 124 nM; on human 5-HT1A receptor [3], 124 nM; at human D2 receptor, above 10000 nM. At human 5-HT2A receptor [4] (aequorin luminescence), this molecule returned an IC50 of 415 nM.
As to `O=C1c2ncccc2CCN1CCN1CCC(c2noc3cc(F)c(F)cc23)CC1` [Example 148], the Ki at human 5-HT2A receptor [2] came out at 43.2 nM; at human 5-HT1A receptor [3], 156 nM. The molecule also had an activity at 10 µM at human 5-HT2A receptor [4] (CHO-K1) of 45%.
For the molecule `CC1CN(CCN2CCN(c3noc4ccccc34)CC2)C(=O)c2ccn(C)c21` (stereo not shown) [Example 83], the Emax at 10 µM at human 5-HT1A receptor [1] was found to be 61%. The “Metabolic stability in human hepatic microsome” value (shortened to “Metabolic stability”) in data set [5] was 0.135 mL/min/mg protein. Moreover, the affinity on human 5-HT2A receptor [2] corresponds to a Ki of 4 nM. For the same molecule, the 50% inhibitory concentration (IC50) is 8000 nM on hERG channel and 49 nM against human 5-HT2A receptor [4].
Turning to `COc1ccc2onc(C3CCN(CCN4CCc5cccnc5C4=O)CC3)c2c1` [Example 142], at human 5-HT1A receptor [1], the EC50 was determined as 8.8 nM and the Emax at 10 µM came to 54%. The same molecule showed a Ki at human 5-HT2A receptor [2] of 164 nM. The molecule further yielded a Ki at human 5-HT1A receptor [3] of 1.83 nM. This molecule also came in with an IC50 against human 5-HT2A receptor [4] (aequorin luminescence) of 3910 nM. Further, at human D2 receptor, the Ki is above 10000 nM, the “D2 Ki/5-HT1A Ki” value is recorded as above 5452.0 and the “D2 Ki/5-HT2A Ki” value is recorded as above 61.0.
`O=C1c2ncccc2CCN1CCN1CCC(c2noc3ccccc23)CC1` [Example 22, 7-{2-[4-(1,2-Benzoisoxazol-3-yl)piperidin-1-yl]ethyl}-6,7-dihydro-1,7-naphthyridin-8(5H)-one]: the Emax at 10 µM at human 5-HT1A receptor [1] worked out at 52%. Besides, the “Metabolic stability” value in data set [5] came out at 0.039 mL/min/mg protein. The values for the Ki at human 5-HT2A receptor [2] and on human D2 receptor were 4.4 nM and 2600 nM, respectively. Further, the IC50 stood at 1900 nM at hERG channel and 94 nM on human 5-HT2A receptor [4].
In the case of `O=c1c2cnc(C(F)(F)F)cc2ccn1CCN1CCN(c2noc3ccccc23)CC1` [Example 173], at human 5-HT1A receptor [1], the EC50 turned out to be 40.8 nM and the Emax at 10 µM is 50%. The molecule also showed a Ki on human 5-HT2A receptor [2] of 22.8 nM. In addition, the affinity at human 5-HT1A receptor [3] corresponds to a Ki of 38.6 nM. In addition, on human 5-HT2A receptor [4] (aequorin luminescence), the IC50 was 184 nM. Also, on human D2 receptor, the Ki is above 10000 nM, the “D2 Ki/5-HT1A Ki” value is recorded as above 259.1 and the “D2 Ki/5-HT2A Ki” value is above 438.0.
Regarding `CC1CN(CCN2CCC(c3noc4ccccc34)CC2)C(=O)c2ccn(C)c21` (stereo not shown) [Example 82], the Emax at 10 µM on human 5-HT1A receptor [1] was found to be 61%. Also, the “Metabolic stability” value in data set [5] was 0.072 mL/min/mg protein. For the same molecule, at human 5-HT2A receptor [2], the Ki was 0.87 nM. For the same molecule, the results for the IC50 on hERG channel and on human 5-HT2A receptor [4] were 1900 nM and 46 nM, respectively.
Take `Cc1noc2c1C(=O)N(CCN1CCN(c3nsc4ccccc34)CC1)CC2` [Example 34]: the Emax at 10 µM on human 5-HT1A receptor [1] amounted to 54%. The “Metabolic stability” value in data set [5] was found to be 0.124 mL/min/mg protein. In addition, at human 5-HT2A receptor [2], the Ki came out at 0.7 nM. Besides, the IC50 on hERG channel came to 2500 nM; on human 5-HT2A receptor [4], 8 nM.
`Cn1cc2c(n1)CCN(CCN1CCC(c3noc4ccccc34)C1)C2=O` (stereo not shown) [Example 174]: on human 5-HT1A receptor [1], the EC50 was 193 nM and the Emax at 10 µM is 50%. This molecule also showed a Ki on human 5-HT2A receptor [2] of 71.7 nM. This molecule showed a Ki at human 5-HT1A receptor [3] of 78.1 nM. For the same molecule, on human 5-HT2A receptor [4] (aequorin luminescence), half-maximal inhibition (IC50) required 723 nM. For the same molecule, at human D2 receptor, the Ki is above 10000 nM, the “D2 Ki/5-HT1A Ki” value is reported as above 128.0 and the “D2 Ki/5-HT2A Ki” value is recorded as above 139.5.
